The supplement of paper PMC10307832

Assays:
Test in all cases: relative viability (nuclei count vs DMSO), 5 days (fraction); higher = more cells survive
[1] = compound: CC(C)C[C@H](NC(=O)[C@H](Cc1ccccc1)NC(=O)c1cnccn1)B(O)O [Bortezomib]
In short: (§1)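 Acceptance criteria were a control CV below 25% and at least one doubling per plate. Lung cancer cell lines in 1536-well plates got five library-drug doses (not always all listed) √10 apart by pinning and were left 5 days with no medium change. Viability divides treated-well nuclei by vehicle-well nuclei and is the median across plates. Nuclei were counted by MetaXpress from 4× Hoechst images.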

[2] = compound: CC1=CC(=NN1)NC2=CC(=NC(=N2)/C=C/C3=CC=CC=C3)N4CCN(CC4)C
In short: as §1

[3] = compound: COC1=CC(c2cc3ccccc3[nH]2)=N/C1=C\c1[nH]c(C)cc1C [Obatoclax]
In short: as §1

| Cell Line | relative viability ([1]; 0.0002 µM) | relative viability ([1]; 0.000632 µM) | relative viability ([1]; 0.002 µM) | relative viability ([1]; 0.006325 µM) | relative viability ([1]; 0.02 µM) | relative viability ([2]; 0.08 µM) | relative viability ([2]; 0.253 µM) | relative viability ([2]; 0.8 µM) | relative viability ([2]; 2.53 µM) | relative viability ([2]; 8 µM) | relative viability ([3]; 0.01 µM) | relative viability ([3]; 0.03162 µM) | relative viability ([3]; 0.1 µM) | relative viability ([3]; 0.3162 µM) | relative viability ([3]; 1 µM) | relative viability ([1]; 0.002 µM, anchor plate) |
| --- | --- | --- | --- | --- | --- | --- | --- | --- | --- | --- | --- | --- | --- | --- | --- | --- |
| NCI-H2342 | 1.1 | 0.948 | 1.02 | 1.03 | 0.748 | 0.913 | 0.938 | 1.1 | 0.916 | 0.366 | 1.02 | 1.08 | 1.06 | 0.857 | 0.954 | – |
| HCC-827 | 1.06 | 1.04 | 1.05 | 0.738 | 0.165 | 1.02 | 1.06 | 1.06 | 0.89 | 0.443 | 0.97 | 0.957 | 0.946 | 1.05 | 0.979 | 1.05 |
| NCI-H322M | 0.922 | – | 0.918 | 0.458 | 0.421 | 0.951 | 0.969 | 0.847 | 0.413 | 0.281 | 0.975 | 0.783 | 1.16 | 1 | 1.01 | 1.24 |
| ChaGo-K-1 | 0.993 | 0.814 | 1.01 | 0.594 | 0.213 | 0.953 | 1.01 | 0.976 | 0.647 | 0.289 | 0.997 | 0.829 | 1.01 | 0.931 | 1.06 | 1.08 |
| BEN | 0.91 | 0.991 | 0.954 | 0.704 | 0.274 | 0.921 | 0.974 | 0.998 | 0.618 | 0.224 | 1.02 | 0.821 | 0.727 | 0.922 | 0.953 | 0.843 |
| NCI-H2347 | 1 | 0.936 | 1.03 | 0.615 | 0.339 | 0.966 | 1.11 | 1.1 | 0.891 | 0.525 | 0.999 | 0.946 | 0.843 | 0.946 | 0.926 | 1.08 |
| LOU-NH91 | 0.828 | 0.825 | 0.497 | 0.307 | 0.365 | 0.928 | 1.08 | 0.991 | 0.806 | 0.424 | 0.974 | 0.932 | 0.68 | 0.853 | 0.854 | 0.518 |
| NCI-H2228 | 0.929 | 0.974 | 0.638 | 0.103 | 0.123 | 0.846 | 1.18 | 0.782 | 0.179 | 0.0666 | 0.951 | 0.922 | 1.01 | 0.791 | 0.595 | 1.06 |
| NCI-H358 | 0.904 | 0.675 | 0.874 | 0.131 | 0.162 | 0.847 | 0.92 | 0.787 | 0.203 | 0.11 | 0.923 | 0.911 | 0.833 | 0.623 | 0.319 | – |
| HCC-366 | 1.03 | 0.974 | 1.05 | 1.01 | 0.045 | 0.954 | 1.03 | 0.985 | 0.452 | 0.0338 | 1 | 1.05 | 1.02 | 1.01 | 0.744 | 1.02 |
| NCI-H2405 | 0.96 | 0.907 | 0.988 | 0.293 | 0.18 | 0.979 | 0.889 | 1.06 | 0.458 | 0.201 | 1.07 | 0.997 | – | 1.01 | 1.07 | 0.939 |
| Calu-6 | 0.998 | 0.965 | 0.974 | 0.118 | 0.0868 | 0.967 | 0.991 | 0.889 | 0.236 | 0.141 | 1 | 0.994 | 0.963 | 0.943 | 0.488 | 0.961 |
| 201T | 0.98 | 0.953 | 0.959 | 0.854 | 0.351 | 1.02 | 1.06 | 0.928 | 0.892 | 0.354 | 0.965 | 0.909 | 0.95 | 1.02 | 1.05 | 1.09 |
| CAL-12T | 0.93 | 0.971 | 0.957 | 0.49 | 0.155 | 0.977 | 0.946 | 0.928 | 0.339 | 0.187 | 0.995 | 0.955 | 1 | 0.483 | 0.328 | 1.03 |
| HCC-44 | 0.95 | 0.968 | 0.987 | 0.869 | 0.173 | 0.986 | 1.01 | 0.933 | 0.86 | 0.18 | 1.01 | 0.953 | 0.827 | 0.929 | 0.755 | 0.895 |
| NCI-H1944 | 0.926 | 0.94 | 0.917 | 0.854 | 0.283 | 0.987 | 0.98 | 0.953 | 0.657 | 0.465 | 1.04 | 0.883 | 1.01 | 1.01 | 1.02 | – |
| SK-MES-1 | 0.98 | 0.959 | 1.05 | 0.319 | 0.185 | 0.998 | 1.09 | 0.941 | 0.475 | 0.162 | 0.961 | 1 | 0.947 | 0.721 | 0.414 | – |
| NCI-H2087 | 0.9 | 1.08 | 0.726 | 0.0629 | 0.0618 | 0.959 | 0.761 | 1.09 | 0.277 | 0.13 | 1.01 | 1.14 | 0.8 | 0.876 | 0.298 | 0.79 |
| COR-L 105 | 0.855 | 0.936 | 0.797 | 0.292 | 0.314 | 0.848 | 1 | 0.891 | 0.301 | 0.27 | 0.884 | 1.08 | 0.992 | 0.69 | 0.436 | 0.931 |
| LCLC-97TM1 | 0.943 | 0.729 | 1.08 | 0.439 | 0.118 | 0.911 | 0.963 | 0.912 | 0.504 | 0.121 | 0.988 | 0.801 | 1.31 | 0.856 | 0.908 | 0.744 |
| NCI-H520 | 1.08 | 0.956 | 0.654 | 0.172 | 0.169 | 0.975 | 1.04 | 0.871 | 0.261 | 0.126 | 0.993 | 0.791 | 1.07 | 0.976 | 0.774 | 0.622 |
| NCI-H1993 | 0.903 | 0.935 | 1.01 | 0.493 | 0.502 | 0.91 | 0.882 | 1.27 | 0.571 | 0.423 | 0.92 | 0.865 | 1.07 | 1.03 | 0.896 | 1.19 |
